Measurements as given in publication PMC7901650, “Garcinoic Acid Is a Natural and Selective Agonist of Pregnane X Receptor” (Journal of Medicinal Chemistry, 2020).

Tests used:
LXRβ receptor = target: T1, LXRβ receptor (Homo sapiens, UniProt P55055); assay: AlphaScreen nuclear receptor panel, LXRβ; type: biochemical
T1 construct: GST-LBD
T1 sequence (P55055 222-460 limits assumed): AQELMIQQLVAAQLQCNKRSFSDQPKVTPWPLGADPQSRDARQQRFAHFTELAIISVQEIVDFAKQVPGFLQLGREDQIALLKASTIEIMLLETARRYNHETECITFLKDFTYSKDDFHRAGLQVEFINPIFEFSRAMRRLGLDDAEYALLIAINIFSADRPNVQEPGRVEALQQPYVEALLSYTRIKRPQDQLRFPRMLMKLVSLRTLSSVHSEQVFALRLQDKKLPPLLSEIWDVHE
Description: Ligand binding activity of GA (1) was explored via AlphaScreen technology over a panel of NRs that, along with hPXR (Figure 1A), included major human endocrine and metabolic receptors, such as the retinoid X receptor (RXR), constitutive androstane receptor (CAR), farnesoid X receptor (FXR), vitamin D receptor (VDR), liver X receptor (LXR) forms α and β, and the PPAR isoforms α, δ, and γ (see Figure S1). GA (1) was compared to its analogue δ-tocotrienol (5), the vitamers 3 and 4, their short-chain metabolites (SCMs) α-CEHC (10) and γ-CEHC (11), and the LCMs 2 and 8 (Chart 1). The test was performed in the presence of reference standard agonists for the different NRs.
The activity of nuclear receptors was determined using AlphaScreen technology, a recruitment coactivator assay previously described.[56]
(A) The test was carried out at 10 μM compound final concentration. Ligand binding to nuclear receptors was expressed as luminescence units. […] Vehicle was assessed to obtain a measure of background signal (basal evaluation). […] In presence of the ligand, the nuclear receptor LBD undergoes conformational changes, binds to the coactivator and the chemical energy is transferred from donor to acceptor beads in order to produce a signal, i.e. luminescence; in this case the compounds behaves as agonist, changing the conformation of the receptor to recruit the coactivator. […]

recombinant human Pgp = target: T2, recombinant human Pgp (Homo sapiens, UniProt P08183); assay: P-glycoprotein activity assay (Pgp-Glo); type: biochemical; conditions: 50 nM to 25 μM
T2 construct: purchased Promega
T2 sequence (P08183 whole entry): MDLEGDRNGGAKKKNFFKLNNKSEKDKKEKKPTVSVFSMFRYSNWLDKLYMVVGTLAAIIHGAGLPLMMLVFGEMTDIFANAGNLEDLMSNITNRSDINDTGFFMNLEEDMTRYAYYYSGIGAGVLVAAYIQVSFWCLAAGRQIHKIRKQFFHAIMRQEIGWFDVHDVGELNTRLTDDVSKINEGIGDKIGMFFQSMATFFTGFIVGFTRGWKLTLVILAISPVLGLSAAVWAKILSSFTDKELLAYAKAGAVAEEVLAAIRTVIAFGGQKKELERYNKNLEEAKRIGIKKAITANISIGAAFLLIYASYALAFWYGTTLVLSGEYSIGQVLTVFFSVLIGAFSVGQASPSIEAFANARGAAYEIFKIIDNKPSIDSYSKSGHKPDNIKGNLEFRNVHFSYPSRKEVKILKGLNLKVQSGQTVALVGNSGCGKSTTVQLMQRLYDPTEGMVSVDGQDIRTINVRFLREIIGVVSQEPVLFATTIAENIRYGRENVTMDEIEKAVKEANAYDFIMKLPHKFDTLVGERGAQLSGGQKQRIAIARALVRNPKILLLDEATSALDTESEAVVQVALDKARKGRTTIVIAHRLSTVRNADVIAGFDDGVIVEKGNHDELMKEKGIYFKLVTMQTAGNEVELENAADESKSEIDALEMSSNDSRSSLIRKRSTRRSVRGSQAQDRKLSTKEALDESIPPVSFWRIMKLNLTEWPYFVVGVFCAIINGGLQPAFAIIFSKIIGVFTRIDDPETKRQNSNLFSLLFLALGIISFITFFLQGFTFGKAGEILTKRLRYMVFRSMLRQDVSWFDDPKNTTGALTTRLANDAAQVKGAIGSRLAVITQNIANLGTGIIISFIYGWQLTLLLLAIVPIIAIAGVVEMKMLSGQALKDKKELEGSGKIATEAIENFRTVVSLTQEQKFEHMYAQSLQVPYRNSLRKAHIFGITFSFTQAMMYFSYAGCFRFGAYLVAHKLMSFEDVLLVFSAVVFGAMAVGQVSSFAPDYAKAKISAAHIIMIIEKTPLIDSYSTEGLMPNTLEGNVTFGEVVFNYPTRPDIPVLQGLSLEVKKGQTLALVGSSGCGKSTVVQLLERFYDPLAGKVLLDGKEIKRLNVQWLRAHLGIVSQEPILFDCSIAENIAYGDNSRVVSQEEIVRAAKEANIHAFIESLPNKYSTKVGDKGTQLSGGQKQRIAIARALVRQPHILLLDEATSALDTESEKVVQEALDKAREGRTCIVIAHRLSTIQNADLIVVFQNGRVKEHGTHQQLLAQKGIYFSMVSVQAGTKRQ
Description: To evaluate the effects of GA on recombinant human Pgp in a cell membrane fraction, we used the Pgp-Glo assay system (Promega, Madison, WI), according to the manufacturer’s instruction. The assay relies on the ATP dependence of the light-generating reaction of firefly luciferase.

[1] = target: T3, hPXR ligand binding domain (LBD) (Homo sapiens, UniProt O75469); assay: Isothermal titration calorimetry, binding to His-tagged hPXR LBD; conditions: ITC, 37 °C, pH 7.5
T3 construct: made in house; host or cells: E. coli BL21-Gold
T3 sequence (O75469 146-433 limits assumed): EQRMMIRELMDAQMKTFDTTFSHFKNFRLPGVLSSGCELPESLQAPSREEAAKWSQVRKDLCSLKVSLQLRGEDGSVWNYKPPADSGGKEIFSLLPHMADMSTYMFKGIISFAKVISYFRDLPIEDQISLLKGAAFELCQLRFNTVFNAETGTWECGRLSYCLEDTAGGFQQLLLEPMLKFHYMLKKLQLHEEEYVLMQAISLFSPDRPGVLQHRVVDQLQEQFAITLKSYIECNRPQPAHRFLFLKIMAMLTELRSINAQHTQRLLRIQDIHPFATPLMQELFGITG
Description: To obtain direct proof of interaction with the hPXR ligand binding domain (LBD), we performed an isothermic titration calorimetry (ITC) experiment using His-tagged hPXR LBD protein in solution (Figure 1C). ITC measures the affinity, Ka, the Gibbs energy (ΔG = −RT ln Ka), and the changes in enthalpy, ΔH, and entropy, ΔS, associated with the binding of the FKK compounds (ΔG = −RT ln K = ΔH – TΔS). Enthalpic and entropic contributions to binding affinity define the nature of the forces that drive the binding reaction.[40],[41]
ITC was performed using a VP-ITC microcalorimeter from MicroCal/Malvern Instruments (Northampton, MA). The protein and the ligands (in DMSO, 8% vol/vol final concentration) were prepared in 25 mM Hepes, pH 7.5 with 150 mM NaCl. In all of the experiments, the ligand solution was injected in 10-μL aliquots into the calorimetric cell containing PXR-LBD [3 μM] at 37 °C. The respective concentrations of GA (1), 2, and 5 in the syringe were 60 μM each. The heat evolved upon each injection of the ligands was obtained from the integral of the calorimetric signal. The heat associated with binding to PXR-LBD in the cell was obtained by subtracting the heat of dilution from the heat of reaction.

[2] = system: C57BL/6 wild-type male mice; assay: Acute toxicity in mice after single oral bolus; conditions: 100 mg single bolus by oral gavage, 24 h after the treatment

Compound: C/C(=C\CC/C(C)=C/CC[C@]1(C)CCc2cc(O)cc(C)c2O1)CC/C=C(\C)C(=O)O [GA (1), (2E,6E,10E)-13-[(2R)-6-hydroxy-2,8-dimethyl-chroman-2-yl]-2,6,10-trimethyltrideca-2,6,10-trienoic acid]
- Agonist activity at LXRβ (LXRβ receptor): low activity
- P-glycoprotein (MDR1) activity (recombinant human Pgp): increased in a dose–dose-dependent manner
- N (stoichiometry) [1]: 0.9
- ΔG [1]: -8.8 kcal/mol
- ΔH [1]: -6.4 kcal/mol
- −TΔS [1]: -2.4 kcal/mol
- ΔG ([1]; listed as 1): -8.8 kcal/mol
- ΔH ([1]; listed as 1): -6.4 kcal/mol
- Mortality [2]: 100%
